Reference: patent EP0431659B1, “Pharmaceutical compositions of tebufelone” (THE PROCTER & GAMBLE COMPANY, priority 1989, dated 1991)

Assays:
[1] = water solubility of tebufelone; format: physicochemical; conditions: water (essentially water-insoluble)
[2] = absorption from the gastrointestinal tract after peroral dosing; format: in vivo; conditions: dosed in conventional solid dosage forms, such as tablets or powders in capsules

- solubility [1]: < 1 µg/mL
- absorption of tebufelone from the gastrointestinal tract [2]: quite low
SMILES: C#CCCCC(=O)c1cc(C(C)(C)C)c(O)c(C(C)(C)C)c1 [tebufelone, 1-[3,5-bis(1,1-dimethylethyl)-4-hydroxyphenyl]-5-hexyn-1-one]
